Converted amounts (≈) assume the structure as drawn. “And” between values parts separate entries of the source, which are not always exact repeats. Identical values can stand only once. Marks after values point to notes of the source that are not given here.
Key:
Type in all cases: cell-based
[1] = system: L. lactis HP; assay: Deferred antagonism assay; details: producing strain
Description: (§1) Mutagenesis of the nisA gene was carried out as described previously (Field et al., 2008). Briefly, saturation mutagenesis was carried out using pDF05 (pCI372-nisA) as template and using oligonucleotides containing an NNK codon in place of each native codon. PCR amplification was performed in a 50 µl reaction containing approximately 0.5 ng of target DNA (pDF05), 1 unit Phusion High-Fidelity DNA polymerase (Finnzymes, Finland), 1 mM dNTPs and 500 ng each of the appropriate forward and reverse oligonucleotide. The reaction was pre-heated at 98°C for 2 min, and then incubated for 29 cycles at 98°C for 30 s, 55°C for 15 s and 72°C for 3 min 30 s, and then finished by incubating at 72°C for 3 min 30 s. Amplified products were treated with Dpn1 (Stratagene) for 60 min at 37°C to digest template DNA and purified using the QIAquick PCR purification kit. Following transformation of E. coli Top 10 cells plasmid DNA was isolated and sequenced using primers pCI372FOR (5' […] 3') and pCI372REV (5' […] 3') to verify that mutagenesis had taken place. Approximately 150 transformants were chosen at random for each position and inoculated into 96-well plates containing GM17 chloramphenicol, incubated overnight and stored at -20°C after addition of 80% glycerol. Deferred antagonism assays were performed by replicating strains on GM17 agar plates and allowing them to grow overnight before overlaying with BHI agar (0.75% w/v agar) seeded with the appropriate indicator strain.
(§2) Previously, site-saturation mutagenesis-based strategies were used to generate strains producing bioengineered nisin derivatives in which all residues not involved in lanthionine ring formation (i.e. I1, T2, 14, S5, L6, P9, G10, K12, G14, A15, L16, M17, G18, N20, M21, K22, A24, H27, S29 130, H31, V32, S33 and K34) were each randomised to potentially all other natural amino acids, or whereby all three residues of the hinge-region (NMK) were randomised simultaneously (Rouse et al., 2012, Healy et al., 2013, Field et al., 2008). […] From this screen 76 variants of interest from the first round of screening were incorporated into a "mini-bank" for subsequent further analysis. The number of indicator strains was increased from five to thirteen to include S. uberis 43382, S. uberis DPC5344, S. dysgalactiae ATCC43078, L. lactis 303, L. cremoris KH, Lactobacillus bulgaricus NCDO2489, Lb. helveticus 2079 and Lb. acidophilus ATCC4356 (Table 1). Following this second round of screening, 6 variants of interest were deemed worthy of closer inspection. DNA sequencing of the mutated nisin gene as well as mass spectrometric analysis of the peptide produced by each strain established that these corresponded to nisin M17Q (methionine at position 17 altered to glutamine), nisin T2L (threonine 2 leucine) nisin HTK, VGA, VGV or VGT (where the hinge residues Asn-Met-Lys have been altered to His-Thr-Lys, Val-Gly-Ala, Val-Gly-Val or Val-Gly-Thr respectively). […] As a result, these derivatives were eliminated from this study, but will be the subject of further investigation as potential anti-mastitis antimicrobials. […] In the case of the derivatives nisin T2L and nisin HTK, the activity appeared reduced and equivalent to nisin A respectively (Figure 1), while improved activity was observed by both derivatives against S. agalactiae ATCC13813 and S. aureus RF122 (Table 2). On this basis, the nisin derivatives M17Q, T2L and HTK were selected for purification and specific activity assays. Purified peptides were subjected to Mass Spectrometry to confirm the correct mass in each case. In the case of T2L and HTK derivatives, the threonine remained in the unmodified form (data not shown).

[2] = system: L. lactis MG1363; assay: Deferred antagonism assay; details: producing strain
Description: as §1, §2

[3] = system: S. agalactiae ATCC13813; assay: Deferred antagonism assay; details: producing strain
Description: as §1, §2

[4] = system: S. aureus RF122; assay: Deferred antagonism assay; details: producing strain
Description: as §1, §2

[5] = system: Thermus scotoductus SE-1; assay: Agar diffusion assay with cell free supernatant of producing strains; details: zone diameter relative to Nisin A wild type (100)
Procedure, shortened: (§3)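 Cell-free supernatant (50 µl) from overnight nisin A or variant-producing L. lactis cultures placed in wells of Castenholz agar seeded with indicator strain. Plates incubated 55°C for 3 days; zone of clearance measured, reflecting combined peptide yield and specific activity; triplicate.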

[6] = system: Thermus thermophilus HB27; assay: as above; details: zone diameter relative to Nisin A wild type (100)
Procedure, shortened: as §3

[7] = system: T. aquaticus; assay: Minimum inhibitory concentration assay (Thermus); details: pure peptide, mean of triplicate assays
Procedure, shortened: (§4)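 MIC values come from triplicate microdilution of purified peptides against Thermus cultures at ∼10^5 cfu/ml in Castenholz medium, incubated 3 days at 55°C and scored by absence of visible growth.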

[8] = system: T. brockianus; assay: Minimum inhibitory concentration assay (Thermus); details: pure peptide, mean of triplicate assays
Procedure, shortened: as §4

[9] = system: T. oshimai; assay: Minimum inhibitory concentration assay (Thermus); details: pure peptide, mean of triplicate assays
Procedure, shortened: as §4

[10] = system: T. rehai; assay: Minimum inhibitory concentration assay (Thermus); details: pure peptide, mean of triplicate assays
Procedure, shortened: as §4

[11] = system: T. scotoductus SE-1; assay: Minimum inhibitory concentration assay (Thermus); details: pure peptide, mean of triplicate assays
Procedure, shortened: as §4

[12] = system: T. thermophilus HB27; assay: Minimum inhibitory concentration assay (Thermus); details: pure peptide, mean of triplicate assays
Procedure, shortened: as §4

[13] = system: B. longum UCC 44b
Description: (§5) Minimum inhibitory concentration determinations were carried out in triplicate in 96 well microtitre plates. 96 well microtitre plates were pre-treated with bovine serum albumin (BSA) prior to addition of the peptides. Briefly, to each well of the microtitre plate 200 µL of phosphate buffered saline (PBS) containing 1% (w/v) bovine serum albumin (PBS/BSA) was added and incubated at 37°C for 30 min. The wells were washed with 200 µL PBS and allowed to dry. Target strains were grown overnight in the appropriate conditions and medium, subcultured into fresh broth and allowed to grow to an OD600 of ∼0.5, diluted to a final concentration of 10^5 cfu ml^-1 in a volume of 0.2 ml. The lyophilised peptides were resuspended in the appropriate media to a stock concentration of 30 µM. Wild type nisin and nisin mutant peptides were adjusted to a 7.5 or 5.0 µM or 500 nM starting concentration and 2-fold serial dilutions of each peptide were made in 96 well plates for a total of 12 dilutions.
(§6) To confirm that the observed enhanced activity of the nisin variants was due to increased specific activity, the activity of purified peptides were assessed using classical broth-based minimum inhibitory concentration (MIC) determination assays. […] Also included were the lactic acid bacteria targets L. lactis MG1363, L. lactis spp. lactis HP, B. longum UCC44b and Lb acidophilus ATCC 4356.

[14] = system: Lb. acidophilus ATCC 4356
Description: as §5, §6

[15] = system: L. lactis HP; assay: Minimum inhibitory concentration assay
Description: as §5, §6

[16] = system: S. aureus 272; assay: Minimum inhibitory concentration assay
Description: as §5, §6

[17] = system: S. aureus 513; assay: Minimum inhibitory concentration assay; details: purified peptide
Description: as §5, §6

[18] = system: S. aureus 5971; assay: Minimum inhibitory concentration assay
Description: as §5, §6

[19] = system: S. aureus DPC 5243; assay: Minimum inhibitory concentration assay; details: purified peptide
Description: as §5, §6

[20] = system: S. aureus DPC 5245; assay: Minimum inhibitory concentration assay; details: purified peptide
Description: as §5, §6

[21] = system: S. aureus DPC 5247; assay: Minimum inhibitory concentration assay; details: purified peptide
Description: as §5, §6

[22] = system: S. aureus ST528(MRSA); assay: Minimum inhibitory concentration assay
Description: as §5, §6

[23] = system: S. aureus ST534(MRSA); assay: Minimum inhibitory concentration assay
Description: as §5, §6

[24] = system: S. aureus strains; assay: Minimum inhibitory concentration assay, panel of S. aureus strains; details: panel of 12 S. aureus isolates; compared to nisin A
Description: as §5, §6

## C=C(NC(=O)[C@@H](NC(=O)[C@H](Cc1c[nH]cn1)NC(=O)[C@@H](NC(=O)[C@H](CO)NC(=O)[C@@H]1CS[C@@H](C)[C@H]2NC(=O)[C@H](C)NC(=O)[C@H](NC(=O)[C@H](C)NC(=O)CNC(=O)[C@@H](NC(=O)[C@@H]3CS[C@@H](C)[C@@H](NC(=O)[C@H](CCCCN)NC(=O)[C@@H]4CS[C@@H](C)[C@@H](NC(=O)[C@@H]5CSC[C@@H](NC(=O)/C(=C/C)NC(=O)[C@@H](N)[C@@H](C)CC)C(=O)N[C@@H]([C@@H](C)CC)C(=O)NC(=C)C(=O)N[C@@H](CC(C)C)C(=O)N5)C(=O)N5CCC[C@H]5C(=O)NCC(=O)N4)C(=O)NCC(=O)N[C@@H](C)C(=O)N[C@@H](CC(C)C)C(=O)N[C@@H](CCSC)C(=O)NCC(=O)N3)C(C)C)[C@H](C)SC[C@H](NC2=O)C(=O)N[C@@H](Cc2c[nH]cn2)C(=O)N1)[C@@H](C)CC)C(C)C)C(=O)N[C@@H](CCCCN)C(=O)O [VGA, nisin VGA]
[1]
  zone of inhibition (area of the zone of inhibition minus the area of the spot): 362.16 ± 6.77 mm2
[2]
  zone of inhibition (area of the zone of inhibition minus the area of the spot): 230.92 ± 4.04 mm2
[3]
  zone of inhibition (area of the zone of inhibition minus the area of the spot): 234.96 ± 25.45 mm2
[4]
  zone of inhibition (area of the zone of inhibition minus the area of the spot): 138.17 ± 8.12 mm2
[5]
  % of wild type: 127* (0.022) %
[6]
  % difference: 169* (0.0002) %
[7]
  MIC: 0.0156 µM (≈ 0.05 µg/mL)
[8]
  MIC: 0.125 µM (≈ 0.401 µg/mL)
[9]
  MIC: 0.0156 µM (≈ 0.05 µg/mL)
[10]
  MIC: 0.125 µM (≈ 0.401 µg/mL)
[11]
  MIC: 0.125 µM (≈ 0.401 µg/mL)
[12]
  MIC: 0.0312 µM (≈ 0.1 µg/mL)

## C=C(NC(=O)[C@@H](NC(=O)[C@H](Cc1c[nH]cn1)NC(=O)[C@@H](NC(=O)[C@H](CO)NC(=O)[C@@H]1CS[C@@H](C)[C@H]2NC(=O)[C@H](C)NC(=O)[C@H](NC(=O)[C@H](CCCCN)NC(=O)[C@H](CCSC)NC(=O)[C@H](CC(N)=O)NC(=O)[C@@H]3CS[C@@H](C)[C@@H](NC(=O)[C@H](CCCCN)NC(=O)[C@@H]4CS[C@@H](C)[C@@H](NC(=O)[C@@H]5CSC[C@@H](NC(=O)[C@H](CC(C)C)NC(=O)[C@@H](N)[C@@H](C)CC)C(=O)N[C@@H]([C@@H](C)CC)C(=O)NC(=C)C(=O)N[C@@H](CC(C)C)C(=O)N5)C(=O)N5CCC[C@H]5C(=O)NCC(=O)N4)C(=O)NCC(=O)N[C@@H](C)C(=O)N[C@@H](CC(C)C)C(=O)N[C@@H](CCSC)C(=O)NCC(=O)N3)[C@H](C)SC[C@H](NC2=O)C(=O)N[C@@H](Cc2c[nH]cn2)C(=O)N1)[C@@H](C)CC)C(C)C)C(=O)N[C@@H](CCCCN)C(=O)O [T2L, nisin T2L]
[1]
  zone of inhibition (area of the zone of inhibition minus the area of the spot): 134.12 ± 19.00 mm2
[2]
  zone of inhibition (area of the zone of inhibition minus the area of the spot): 80.11 ± 12.18 mm2
[3]
  zone of inhibition (area of the zone of inhibition minus the area of the spot): 194.44 ± 6.22 mm2
[4]
  zone of inhibition (area of the zone of inhibition minus the area of the spot): 100.05 ± 14.96 mm2
[13]
  fold decreased activity compared to wild type peptide: 2 fold
[14]
  fold reduction in specific activity compared to wild type nisin A: 4 fold
[14]; purified peptide
  Specific activity (MIC): 0.12 Mg/L and 0.044 µM
[15]; compared to wild-type nisin A
  fold reduction in potency: 2 fold
[15]; purified peptide
  Specific activity (MIC): 0.4 Mg/L and 0.125 µM
[16]; compared to nisin A
  fold enhanced activity: 4 fold
[16]; purified peptide
  Specific activity (MIC): 0.75 Mg/L and 0.234 µM
[17]
  Specific activity (MIC): 3 Mg/L and 0.937 µM
[18]; compared to nisin A
  fold improved activity: 16 fold
[18]; purified peptide
  Specific activity (MIC): 1.5 Mg/L and 0.468 µM
[19]
  Specific activity (MIC): 0.5 Mg/L and 0.156 µM
[20]
  Specific activity (MIC): 0.5 Mg/L and 0.156 µM
[21]
  Specific activity (MIC): 0.5 Mg/L and 0.156 µM
[22]; S. aureus ST528 (MRSA), compared to nisin A
  fold enhanced activity: 4 fold
[22]; S. aureus ST528(MRSA), purified peptide
  Specific activity (MIC): 0.125 Mg/L and 0.039 µM
[23]; S. aureus ST 534 (MRSA), compared to nisin A
  fold enhanced activity: 4 fold
[23]; S. aureus ST534(MRSA), purified peptide
  Specific activity (MIC): 0.25 Mg/L and 0.078 µM
[24]
  number of S. aureus strains with enhanced specific activity: 9

Reference: patent publication EP3822285A1, “VARIANT NISIN PEPTIDES” (University College Cork-National University of Ireland, Cork, priority 2019, dated 2021)
